Experimental data as given in US20030220524A1, “Sulfur containing compounds” (priority 2000, published 2003).
pIC50: −log10 of the molar value. Where two headings read alike, the source gives them in different places.

Tested on: B1 leukemic cell line
Test: MTT assay
Format: cell-based, human
Conditions: 48 h, read-out: MTT50
Procedure: All cell lines were assayed as asynchronously growing cells. Leukemic cell lines, OCI-AML-2, OCI-AML-3 (referred to hereafter as AML-2 and AML-3, respectively), NB-4, KK, B1, G2, and W1 were cultured in alpha-minimal essential medium (α-MEM) (Princess Margaret Hospital Media Services) supplemented with 10% fetal bovine serum (FBS) (Sigma, St. Louis, Mo.). Non-transformed, diploid fibroblast lines WI38 and IMR90, were cultured in α-MEM and MEM F-15, respectively supplemented with 10% FBS. Media for IMR90 cells was also supplemented with 1.5 g/L bicarbonate and 1 mM pyruvate. Breast tumour cell lines, MDA-231, SK-BR-3, MCF-7, ZR-751, and melanoma tumour cell lines, WM9, WM983, WM793, 1232, were grown in α-MEM supplemented with 10% fetal bovine serum. Prostate tumour cell lines, DU145 and PC-3, were grown in RPMI 1640 media supplemented with 10% FBS. All cell lines were cultured in the presence of penicillin/streptomycin. Mononucleated cells were isolated from normal bone marrow using Ficoll hypaque and then T-cell depleted. T-cell depletion was performed by incubating the mononucleated bone marrow cells in α-MEM at a concentration of 2×10^7 cells/mL with 10% absor FBS and 10% (v/v) sheep red blood cells for 4 to 16 h. Absor FBS was prepared beforehand by heating FBS at 56° C. for 1 h, incubating with sheep red blood cells at 0.5% (v/v) for 1 h and then filtering the FBS with a […]. The T-cell depleted, mononucleated cells were recovered using Ficoll hypaque and were maintained in α-MEM supplemented with 20% FBS and 10% 5637 ? nditioned media. 5637 conditioned media ? s previously harvested from confluent 5637 cells after a 3 day incubation. Normal bone marrow from bone marrow transplant donor was collected following informed consent according to institutional guidelines.
Approximately 20 mg of each compound was dissolved in 5 mL of ACS grade acetone (Sigma) using a 5 mL volumetric flask. Stock solutions of the compounds were stored in the dark at −20° C. Compounds were diluted prior to each experiment.
Adherent cells were seeded at 67×10^3 cells/mL in a 96 well plate (Falcon, Mississauga, Ontario) the day prior to exposure to compound. Suspension cells were seeded at 27×10^4 cells/mL in a 96 well plate the day of exposure to compound. Mononucleated, T-cell depleted normal bone marrow cells were seeded at 67×10^4 cells/mL in a 96 well plate the day of exposure to compound. Compounds and solvent control were added to cells and assayed in triplicate or sextuplet. Following 48 h of incubation at 37° C. with 5% CO2, 40 μL of a 5 mg/mL solution of 3-[4,5-dimethylthiazol-2-yl]-2,5-diphenyltetrazolium bromide (MTT) substrate (Sigma) in Dulbecco's phosphate-buffered saline (D-PBS) was added. After 4 h of incubation at 37° C. with 5% CO2, the resulting violet formazan precipitate was solubilized by the addition of 80 μL of a 0.01 M HCI, 10% sodium dodecyl sulfate (SDS; Sigma) solution overnight at 37° C. with 5% CO2. The plates were then analyzed using the BioRad Benchmark Microplate Reader (BioRad Laboratories, Hercules, Calif.) at 570 nm to determine the optical density of the samples. MTT data was analyzed using Prism 3.0 (GraphPad Software, Inc., San Diego, Calif.) by the Chou-Talalay method. MTT graphs shown are a representative experiment.
Adherent cells were seeded at 67×10^3 cells/mL in a 96 well plate (Falcon, Mississauga, Ontario) the day prior to exposure to compound. Suspension cells were seeded at 27×10^4 cells/mL in a 96 well plate the day of exposure to compound. Mononucleated, T-cell depleted normal bone marrow cells were seeded at 67×10^4 cells/mL in a 96 well plate the day of exposure to compound. Compounds and solvent control were added to cells and assayed in triplicate or sextuplet. […]

pIC50 (Homo sapiens, B1)	Compound	other results
4.03	CSSCC(=O)c1ccccc1 [Compound P, phenacyl methyl disulphide]	–
–	CSSCS(=O)(=O)c1ccc(C)cc1 [Compound C, α-p-toluenesulfonyl dimethyl disulphide]	pIC50 (B1): 4.89
4.90	CSSc1ccc([N+](=O)[O-])cc1 [M, methyl p-nitrophenyl disulphide]	–
–	CSCSSC [Compound N, 2,3,5-trithiahexane]	pIC50 (Homo sapiens): 4.03
5.37	CS(=O)(=O)CSSc1ccccc1 [E, 5-phenyl-2,4,5-trithiapentane 2,2-dioxide]	–
4.85	CCC(=O)OCSSc1ccccc1 [Compound Q, 1-phenyl-1,2-dithiapropyl propionate]	–
